# In US9078446B2, “Use of N-(tetrazol-4-yl)- or N-(triazol-3-yl)arylcarboxamides or their salts for controlling unwanted plants in areas of transgenic crop plants being tolerant to HPPD inhibitor herbicides” (BAYER INTELLECTUAL PROPERTY GMBH, priority 2011, dated 2015):
# How the values were obtained:
# Format in all cases: in vivo
# [1] = test system: transgenic tobacco plants expressing tolerant HPPD enzymes; assay: Tolerance of tobacco plants expressing tolerant HPPD enzymes (all transgenes); settings: for tolerance of the transgenic tobacco plants (symptoms due to application of the herbicide): T1 plants sprayed, evaluated one week after application; for sensitivity of transgenic tobacco plants compared to wild type (wt) plants: all tested independent lines, agronomically relevant dose
# Source text: (§1) Genes coding for the selected HPPD were obtained from a member of the group of organisms consisting of Avena sativa, Pseudomonas fluorescens mutant G336W, Blepharisma japonicum and Kordia algicida and cloned into the binary vector pBin19 allowing the integration of DNA into the tobacco genome, under the control of the CaMV35S promoter. For the cloning procedures, see A2 above for Avena sativa, see B2 above for Pseudomonas fluorescens, mutant G336W, see PCT/EP2010/070567 (published as WO 2011/076882, Example 5; for Blepharisma japonicum (FMP37) and see PCT/EP2010/070575, Example 5 for Kordia algicida (FMP27). Between the sequence corresponding to the promoter and the sequence coding for the HPPD a DNA sequence coding for a transit peptide to the chloroplast was inserted, in order to add at the N-terminal extremity of the protein a target signal to allow the localization of the HPPD protein into the plant chloroplast.
# (§2) Seeds harvested from TO transformants will be put on standard soil for germination. Three weeks later plantlets (T1) will be transferred to single pots and grown under standard cultivation conditions (PCT/EP2010/070575, published as WO 2011/076889). Two weeks later, plants were sprayed with several N-(tetrazol-4-yl)- or N-(triazol-3-yl)arylcarboxamides as defined above.
# (§3) Tables F1 to F5: Evaluation of the Symptoms Observed Due to the Application of the Herbicides on Transgenic Tobacco Plants, Expressing the Mutant Pseudomonas fluorescens HPPD G336W, the Avena HPPD (AvHPPD), the HPPD from Kordia algicida FMP27 or the HPPD from Blepharisma japonicum (FMP37), Compared to Non-Tranformed Tobacco Plants (“Wt”).
# (§4) The herbicides (with “g Al/ha” meaning “g active ingredient/ha”) were applied on 8 to 10 plants originated from 1 to 3 independent transgenic events per transgene.
# (§5) The symptoms were evaluated and classified as following: • 3=Very strong damage • 2=Strong damage • 1=Light and transient damage • 0=No damage
# [2] = test system: cotton plants expressing FMP 27 and FMP 37; assay: Tolerance to HPPD inhibitors of cotton plants expressing tolerant HPPD enzymes; settings: T1 cotton plants; one week after application
# Source text: (§6) Genes coding for the selected HPPD were obtained from a member of the group of organisms consisting of Blepharisma japonicum and Kordia algicida and cloned into an appropriate binary vector allowing the integration of DNA into the cotton genome, under the control of the CaMV35S promoter. For the respective cloning procedures, see WO2011076882 (PCT/EP2010/070567), Example 11; for Blepharisma japonicum (FMP37) and WO2011076889 (PCT/EP2010/070575), Example 11 for Kordia algicida (FMP27).
# Between the sequence corresponding to the promoter and the sequence coding for the HPPD a DNA sequence coding for a transit peptide to the chloroplast was inserted, in order to add at the N-terminal extremity of the protein a target signal to allow the localization of the HPPD protein into the plant chloroplast. Cotton transformation was achieved as described in Example 12 of WO2011076882 (PCT/EP2010/070567) for Blepharisma japonicum (FMP37) and WO2011076889 (PCT/EP2010/070575) for Kordia algicida (FMP27). Seeds from T0 events showing tolerance to tembotrione were harvested.
# T1 Cotton seeds were transferred to single pots and grown under standard cultivation conditions, see WO2011076882 (PCT/EP2010/070567) for Blepharisma japonicum (FMP37) and WO2011076889 (PCT/EP2010/070575) for Kordia algicida (FMP27).
# At least 4 weeks later, plants will be sprayed with several N-(tetrazol-4-yl)- or N-(triazol-3-yl)arylcarboxamides as defined above.
# [3] = test system: soybean plants expressing Pseudomonas fluorescens G336W mutant, FMP 27 and FMP 37; assay: Tolerance to HPPD inhibitors of soybean plants expressing tolerant HPPD enzymes; settings: T1 soybean plants; one week after application
# Source text: as §6, with “the soybean” for “the cotton”, “Example 9;” for “Example 11;”, “Example 9” for “Example 11”
# Between the sequence corresponding to the promoter and the sequence coding for the HPPD a DNA sequence coding for a transit peptide to the chloroplast was inserted, in order to add at the N-terminal extremity of the protein a target signal to allow the localization of the HPPD protein into the plant chloroplast. By using the vectors “pFCO112” (Blepharisma japonicum, WO2011076882), pFCO116 (Korida algicida, WO2011076889), and pFCO117” (see Example B2, above), soybean transformation was achieved as described in Example 10 of WO2011076882 (PCT/EP2010/070567) for Blepharisma japonicum (FMP37) and WO2011076889 (PCT/EP2010/070575) for Kordia algicida (FMP27). Seeds from TO events showing tolerance to tembotrione were harvested.
# T1 Soybean seeds were transferred to single pots and grown under standard cultivation conditions, see WO2011076882.
# Two weeks later, plants will be sprayed with several N-(tetrazol-4-yl)- or N-(triazol-3-yl)arylcarboxamides as defined above.
# [4] = test system: transgenic tobacco plants expressing HPPD from Blepharisma japonicum (FMP37); assay: Symptoms due to herbicide application on transgenic tobacco plants (damage classes 0-3); settings: one week after application
# Source text: as §1, §2, §3, §4, §5
# [5] = test system: transgenic tobacco plants expressing HPPD from Kordia algicida FMP27; assay: as above; settings: one week after application
# Source text: as §1, §2, §3, §4, §5
# [6] = test system: transgenic tobacco plants expressing Avena HPPD (AvHPPD); assay: as above; settings: one week after application, AvHPPD line 659
# Source text: as §1, §2, §3, §4, §5
# [7] = test system: transgenic tobacco plants expressing mutant Pseudomonas fluorescens HPPD G336W (PfHPPD-G336W); assay: as above; settings: one week after application, PfHPPD-G336W line 646
# Source text: as §1, §2, §3, §4, §5
# [8] = test system: non-transformed tobacco plants (Wt); assay: Symptoms due to herbicide application on tobacco plants (damage classes 0-3); settings: one week after application
# Source text: as §2, §3, §4, §5
# [9] = 50 g AI/ha, WP20 + oilseed rape methyl ester + ammonium sulfate
structure (smiles),measurement,setting,value
COCc1c(S(C)(=O)=O)ccc(C(=O)Nc2nnnn2C)c1Cl [Compound 4-253],tolerance of the transgenic tobacco plants (symptoms due to application of the herbicide),[1],good tolerance
same,sensitivity of transgenic tobacco plants compared to wild type (wt) plants,[1],less sensitive
same,tolerance of transgenic plants compared to the wild-type cotton plants,[2],superior tolerance
same,tolerance of transgenic plants compared to the wild-type soybean plants,[3],superior tolerance
same,number of plants with Damage 0 (No damage),"[4]; 50 g AI/ha, FMP37 line 749",7
same,number of plants with Damage 1 (Light and transient damage),"[4]; 50 g AI/ha, FMP37 line 749",2
same,number of plants with Damage 2 (Strong damage),"[4]; 50 g AI/ha, FMP37 line 749",0
same,number of plants with Damage 3 (Very strong damage),"[4]; 50 g AI/ha, FMP37 line 749",1
same,number of plants with Damage 0 (No damage),"[4]; 50 g AI/ha, FMP37 line 754",6
same,number of plants with Damage 1 (Light and transient damage),"[4]; 50 g AI/ha, FMP37 line 754",2
same,number of plants with Damage 2 (Strong damage),"[4]; 50 g AI/ha, FMP37 line 754",1
same,number of plants with Damage 3 (Very strong damage),"[4]; 50 g AI/ha, FMP37 line 754",1
same,number of plants with Damage 0 (No damage),"[4]; 50 g AI/ha, FMP37 line 795",3
same,number of plants with Damage 1 (Light and transient damage),"[4]; 50 g AI/ha, FMP37 line 795",4
same,number of plants with Damage 2 (Strong damage),"[4]; 50 g AI/ha, FMP37 line 795",0
same,number of plants with Damage 3 (Very strong damage),"[4]; 50 g AI/ha, FMP37 line 795",3
same,number of plants with Damage 0 (No damage),"[5]; 50 g AI/ha, FMP27 line 733",4
same,number of plants with Damage 1 (Light and transient damage),"[5]; 50 g AI/ha, FMP27 line 733",4
same,number of plants with Damage 2 (Strong damage),"[5]; 50 g AI/ha, FMP27 line 733",2
same,number of plants with Damage 3 (Very strong damage),"[5]; 50 g AI/ha, FMP27 line 733",0
same,number of plants with Damage 0 (No damage),"[5]; 50 g AI/ha, FMP27 line 734",6
same,number of plants with Damage 1 (Light and transient damage),"[5]; 50 g AI/ha, FMP27 line 734",1
same,number of plants with Damage 2 (Strong damage),"[5]; 50 g AI/ha, FMP27 line 734",2
same,number of plants with Damage 3 (Very strong damage),"[5]; 50 g AI/ha, FMP27 line 734",1
same,number of plants with Damage 0 (No damage),"[5]; 50 g AI/ha, FMP27 line 735",2
same,number of plants with Damage 1 (Light and transient damage),"[5]; 50 g AI/ha, FMP27 line 735",5
same,number of plants with Damage 2 (Strong damage),"[5]; 50 g AI/ha, FMP27 line 735",0
same,number of plants with Damage 3 (Very strong damage),"[5]; 50 g AI/ha, FMP27 line 735",3
same,number of plants with Damage 0 (No damage),[6]; 50 g AI/ha,3
same,number of plants with Damage 1 (Light and transient damage),[6]; 50 g AI/ha,0
same,number of plants with Damage 2 (Strong damage),[6]; 50 g AI/ha,0
same,number of plants with Damage 3 (Very strong damage),[6]; 50 g AI/ha,7
same,number of plants with Damage 0 (No damage),[7]; 50 g AI/ha,9
same,number of plants with Damage 1 (Light and transient damage),[7]; 50 g AI/ha,0
same,number of plants with Damage 2 (Strong damage),[7]; 50 g AI/ha,0
same,number of plants with Damage 3 (Very strong damage),[7]; 50 g AI/ha,1
same,number of plants with Damage 0 (No damage),[8]; [9],0
same,number of plants with Damage 1 (Light and transient damage),[8]; [9],0
same,number of plants with Damage 2 (Strong damage),[8]; [9],0
same,number of plants with Damage 3 (Very strong damage),[8]; [9],10
CCOc1c(S(C)(=O)=O)ccc(C(=O)Nc2nnnn2C)c1Cl [Compound 4-278],tolerance of the transgenic tobacco plants (symptoms due to application of the herbicide),[1],good tolerance
same,sensitivity of transgenic tobacco plants compared to wild type (wt) plants,[1],less sensitive
same,tolerance of transgenic plants compared to the wild-type cotton plants,[2],superior tolerance
same,tolerance of transgenic plants compared to the wild-type soybean plants,[3],superior tolerance
same,number of plants with Damage 0 (No damage),"[4]; FMP37 line 749, 50 g Al/ha",5
same,number of plants with Damage 1 (Light and transient damage),"[4]; FMP37 line 749, 50 g Al/ha",4
same,number of plants with Damage 2 (Strong damage),"[4]; FMP37 line 749, 50 g Al/ha",0
same,number of plants with Damage 3 (Very strong damage),"[4]; FMP37 line 749, 50 g Al/ha",1
same,number of plants with Damage 0 (No damage),"[4]; FMP37 line 754, 50 g Al/ha",5
same,number of plants with Damage 1 (Light and transient damage),"[4]; FMP37 line 754, 50 g Al/ha",4
same,number of plants with Damage 2 (Strong damage),"[4]; FMP37 line 754, 50 g Al/ha",0
same,number of plants with Damage 3 (Very strong damage),"[4]; FMP37 line 754, 50 g Al/ha",1
same,number of plants with Damage 0 (No damage),"[4]; FMP37 line 795, 50 g Al/ha",4
same,number of plants with Damage 1 (Light and transient damage),"[4]; FMP37 line 795, 50 g Al/ha",3
same,number of plants with Damage 2 (Strong damage),"[4]; FMP37 line 795, 50 g Al/ha",0
same,number of plants with Damage 3 (Very strong damage),"[4]; FMP37 line 795, 50 g Al/ha",3
same,number of plants with Damage 0 (No damage),"[5]; FMP27 line 733, 50 g Al/ha",6
same,number of plants with Damage 1 (Light and transient damage),"[5]; FMP27 line 733, 50 g Al/ha",4
same,number of plants with Damage 2 (Strong damage),"[5]; FMP27 line 733, 50 g Al/ha",0
same,number of plants with Damage 3 (Very strong damage),"[5]; FMP27 line 733, 50 g Al/ha",0
same,number of plants with Damage 0 (No damage),"[5]; FMP27 line 734, 50 g Al/ha",6
same,number of plants with Damage 1 (Light and transient damage),"[5]; FMP27 line 734, 50 g Al/ha",3
same,number of plants with Damage 2 (Strong damage),"[5]; FMP27 line 734, 50 g Al/ha",0
same,number of plants with Damage 3 (Very strong damage),"[5]; FMP27 line 734, 50 g Al/ha",1
same,number of plants with Damage 0 (No damage),"[5]; FMP27 line 735, 50 g Al/ha",6
same,number of plants with Damage 1 (Light and transient damage),"[5]; FMP27 line 735, 50 g Al/ha",2
same,number of plants with Damage 2 (Strong damage),"[5]; FMP27 line 735, 50 g Al/ha",0
same,number of plants with Damage 3 (Very strong damage),"[5]; FMP27 line 735, 50 g Al/ha",2
same,number of plants with Damage 0 (No damage),[6]; 50 g Al/ha,9
same,number of plants with Damage 1 (Light and transient damage),[6]; 50 g Al/ha,0
same,number of plants with Damage 2 (Strong damage),[6]; 50 g Al/ha,0
same,number of plants with Damage 3 (Very strong damage),[6]; 50 g Al/ha,1
same,number of plants with Damage 0 (No damage),[7]; 50 g Al/ha,6
same,number of plants with Damage 1 (Light and transient damage),[7]; 50 g Al/ha,3
same,number of plants with Damage 2 (Strong damage),[7]; 50 g Al/ha,0
same,number of plants with Damage 3 (Very strong damage),[7]; 50 g Al/ha,1
same,number of plants with Damage 0 (No damage),[8]; 50 g Al/ha,0
same,number of plants with Damage 1 (Light and transient damage),[8]; 50 g Al/ha,0
same,number of plants with Damage 2 (Strong damage),[8]; 50 g Al/ha,0
same,number of plants with Damage 3 (Very strong damage),[8]; 50 g Al/ha,10
